One experiment addresses T1, Thromboxane A2 receptor (Homo sapiens) (UniProt P21731).
T1 sequence (whole entry): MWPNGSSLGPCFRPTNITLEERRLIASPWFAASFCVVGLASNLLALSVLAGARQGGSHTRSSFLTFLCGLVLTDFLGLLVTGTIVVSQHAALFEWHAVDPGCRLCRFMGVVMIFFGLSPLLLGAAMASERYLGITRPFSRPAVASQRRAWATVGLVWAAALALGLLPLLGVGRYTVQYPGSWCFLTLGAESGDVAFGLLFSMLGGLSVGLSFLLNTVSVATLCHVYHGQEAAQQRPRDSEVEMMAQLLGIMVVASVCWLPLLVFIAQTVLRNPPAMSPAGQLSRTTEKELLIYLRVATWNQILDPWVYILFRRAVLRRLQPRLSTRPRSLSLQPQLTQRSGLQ
The experiment in a line: Competition factor for Thromboxane A2 (TXA2) / Prostaglandin H2 (PGH2)-receptor was determined by CF=(ID50-test)/(ID50-standard); partial agonist. It is filed as functional.
The compound `N#Cc1ccc(COC[C@@H]2C3CC(c4ccc(F)cc4)(CO3)[C@H]2C/C=C/CCCC(=O)O)cc1` (some centres not stated) came in with a CF of 6.
`O=C(O)CCC/C=C/C[C@H]1[C@H](/C=C/[C@@H](O)COc2ccc(F)cc2)C2CC1(c1ccc(F)cc1)CO2` (some centres not stated): the CF came out at 2.
`CCC#CC[C@H](C)[C@H](O)C#C[C@@H]1C2CC(c3ccc(-c4ccccc4)cc3)(CO2)[C@H]1C/C=C/CCCC(=O)O` (some centres not stated): the CF was 12.
Turning to `CCC#CC[C@H](C)[C@H](O)/C=C/[C@@H]1C2CC(c3ccc(-c4ccccc4)cc3)(CO2)[C@H]1C/C=C/CCCC(=O)O` (some centres not stated), the CF worked out at 20.

A further experiment concerns the target T1, Thromboxane A2 receptor (Homo sapiens). In words: Competition factor for Thromboxane A2 (TXA2) / Prostaglandin H2 (PGH2)-receptor was determined by CF=(ID50-test)/(ID50-standard).
The compound `Cc1ccc(S(=O)(=O)N[C@@H]2C3CC(c4cccc(F)c4)(CO3)[C@H]2C/C=C/CCCC(=O)O)cc1` (some centres not stated) displayed a CF of 120.
As to `O=C(O)CCCCCC[C@H]1[C@H](CNS(=O)(=O)c2ccc(Cl)c(Cl)c2)C2CC1(c1ccc(-c3ccccc3)cc1)CO2` (some centres not stated), the CF came to 12.
In the case of `CCCC#CC12COC(C1)[C@H](COCc1ccccc1)[C@H]2C/C=C/CCCC(=O)O` (some centres not stated), the CF was 90.
`O=C(O)CCC/C=C/C[C@@H]1[C@@H](COCc2ccccc2)C2CC1(Cc1ccc(-c3ccccc3)cc1)CO2` (some centres not stated) came in with a CF of 800.
The compound `O=C(O)CC/C=C\C[C@H]1[C@H](CNS(=O)(=O)c2ccc(F)cc2)C2CC1(c1ccc(-c3ccccc3)cc1)CO2` (some centres not stated) returned a CF of 0.05.
The same measure, in the same setting: to `Cc1ccc(S(=O)(=O)N[C@@H]2C3CC(c4ccc(-c5ccccc5)cc4)(CO3)[C@H]2C/C=C/CCCC(=O)O)cc1` (some centres not stated) belongs 2; to `Cc1ccc(S(=O)(=O)NC[C@@H]2C3CC(c4ccc(-c5ccccc5)cc4)(CO3)[C@H]2CCCCCC(=O)O)cc1` (some centres not stated), 0.1; to `CCCCC[C@H](O)/C=C/[C@@H]1C2CC(c3ccc(F)cc3)(CO2)[C@H]1C/C=C/CCCC(=O)O` (some centres not stated), 25.
Consider `O=C(O)CCC/C=C/C[C@H]1[C@H](/C=N/Oc2ccc(F)cc2)C2CC1(c1cccc(F)c1)CO2` (some centres not stated), for which the CF worked out at 10.
Compound `CCCCC[C@H](O)/C=C/[C@H]1C2CC(Cc3ccccc3)(CO2)[C@@H]1C/C=C/CCCC(=O)O` (some centres not stated) gave a CF of 250.
`CCC#CC[C@H](C)[C@H](O)/C=C/[C@@H]1C2CC(c3ccc(F)cc3)(CO2)[C@H]1C/C=C/CCCC(=O)O` (some centres not stated) returned a CF of 26.
Same read-out and setting: to `CCC#CC[C@H](C)[C@H](O)C#C[C@@H]1C2CC(c3ccc(F)cc3)(CO2)[C@H]1C/C=C/CCCC(=O)O` (some centres not stated) belongs 4; to `O=C(O)CCC/C=C/C[C@H]1[C@H](NS(=O)(=O)c2ccc(F)cc2)C2CC1(c1ccc(O)cc1)CO2` (some centres not stated), 30.
In turn, `O=C(O)CCC/C=C/C[C@H]1[C@H](NS(=O)(=O)c2ccc(F)cc2)C2CC1(c1cccc(F)c1)CO2` (some centres not stated) showed a CF of 250.
Compound `O=C(O)CCC/C=C/C[C@H]1[C@H](/C=N/Oc2ccc(F)cc2)C2CC1(c1ccc(-c3ccccc3)cc1)CO2` (some centres not stated) gave a CF of 16.
`O=C(O)CCC/C=C/C[C@@H]1[C@@H](COCc2ccccc2)C2CC1(Cc1ccccc1)CO2` (some centres not stated) had a CF of 300.
Compound `O=C(O)CCC/C=C/C[C@H]1C2COC(C2)[C@@H]1COCc1ccccc1` (some centres not stated) had a CF of more than 1000.
Regarding `O=C(O)CCC/C=C/C[C@H]1[C@H](COCc2ccccc2)C2CC1(c1ccccc1)CO2` (some centres not stated), the CF is 60.
Compound `O=C(O)CCC/C=C/C[C@@H]1[C@@H](COCc2ccccc2)C2CC1(c1ccccc1)CO2` (some centres not stated) yielded a CF of 300.
On to `O=C(O)CCC/C=C/C[C@@H]1[C@@H](/C=C/[C@@H](O)COc2ccc(F)cc2)C2CC1(c1ccc(F)cc1)CO2` (some centres not stated), for which the CF was 375.
For the compound `CCCCC[C@H](O)/C=C/[C@H]1C2CC(CCc3ccccc3)(CO2)[C@@H]1C/C=C/CCCC(=O)O` (some centres not stated), the CF was 420.
The compound `O=C(O)CCC/C=C/C[C@H]1[C@H](/C=N/Oc2ccc(F)cc2)C2CC1(c1ccc(F)cc1)CO2` (some centres not stated) registered a CF of 16.
Same read-out and setting: then `CC12COC(C1)[C@H](COCc1ccccc1)[C@H]2C/C=C/CCCC(=O)O` (some centres not stated), with more than 1000; and `Cc1ccc(S(=O)(=O)N[C@@H]2C3CC(c4ccc(O)cc4)(CO3)[C@H]2C/C=C/CCCC(=O)O)cc1` (some centres not stated), with 520.
For `CCCCC[C@H](O)/C=C/[C@H]1C2CC(c3ccc(F)cc3)(CO2)[C@@H]1C/C=C/CCCC(=O)O` (some centres not stated), the CF worked out at 650.
Turning to `N#Cc1ccc(COC[C@H]2C3CC(c4ccc(F)cc4)(CO3)[C@@H]2C/C=C/CCCC(=O)O)cc1` (some centres not stated), the CF came out at 900.
The same measure, in the same setting: to `O=C(O)CCC/C=C/C[C@H]1[C@H](NS(=O)(=O)c2ccc(F)cc2)C2CC1(c1ccc(-c3ccccc3)cc1)CO2` (some centres not stated) belongs 2.
On to `O=C(O)CCC/C=C/C[C@H]1[C@H](NS(=O)(=O)c2ccc(F)cc2)C2CC1(c1ccc(F)cc1)CO2` (some centres not stated), for which the CF is 120.
The same measure, in the same setting: to `O=C(O)CCCCC[C@H]1[C@H](CNS(=O)(=O)c2ccc(Cl)c(Cl)c2)C2CC1(c1ccc(-c3ccccc3)cc1)CO2` (some centres not stated) belongs 5; to `O=C(O)CCC/C=C/C[C@@H]1[C@@H](COCc2ccccc2)C2CC1(C#Cc1ccccc1)CO2` (stereo in doubt; 8a), 30.
Still for that read-out and setting: to `O=C(O)CCC/C=C/C[C@@H]1[C@@H](COCc2ccccc2)C2CC1(C#Cc1ccccc1)CO2` (stereo in doubt) belongs 30; to `O=C(O)CCC/C=C/C[C@@H]1[C@@H](COCc2ccccc2)C2CC1(c1ccc(F)cc1)CO2` (some centres not stated), 125.
For `O=C(O)CCC/C=C/C[C@H]1[C@H](COCc2ccccc2)C2CC1(c1ccc(F)cc1)CO2` (some centres not stated), the CF is 60.
Regarding `O=C(O)CCC/C=C/C[C@H]1[C@H](COCc2ccccc2)C2CC1(C#Cc1ccccc1)CO2` (some centres not stated), the CF is 12.
On the same count and under the same terms, to `Cc1ccc(S(=O)(=O)N[C@@H]2C3CC(c4ccc(F)cc4)(CO3)[C@H]2C/C=C/CCCC(=O)O)cc1` (some centres not stated) belongs 170; to `O=C(O)CCCCC[C@H]1[C@H](CNS(=O)(=O)c2ccc(F)cc2)C2CC1(c1ccc(-c3ccccc3)cc1)CO2` (some centres not stated), 0.1.
`O=C(O)CCCCCC[C@H]1[C@H](CNS(=O)(=O)c2ccc(Cl)cc2)C2CC1(c1ccc(-c3ccccc3)cc1)CO2` (some centres not stated) displayed a CF of 1.4.
Regarding `Cc1ccc(S(=O)(=O)NC[C@@H]2C3CC(c4ccc(-c5ccccc5)cc4)(CO3)[C@H]2C/C=C\CCC(=O)O)cc1` (some centres not stated), the CF amounted to 0.05.

The target is the same in a further experiment. In words: Competition factor for Thromboxane A2 (TXA2) / Prostaglandin H2 (PGH2)-receptor was determined by CF=(ID50-test)/(ID50-standard); not parallel.
`O=C(O)CCC/C=C\C[C@H]1[C@H](CNS(=O)(=O)c2ccc(Cl)cc2)C2CC1(c1ccc(-c3ccccc3)cc1)CO2` (some centres not stated) displayed a CF of 0.4.
In turn, `O=C(O)CCC/C=C\C[C@H]1[C@H](CNS(=O)(=O)c2ccc(Cl)c(Cl)c2)C2CC1(c1ccc(-c3ccccc3)cc1)CO2` (some centres not stated) displayed a CF of 4.2.
`O=C(O)CC/C=C\C[C@H]1[C@H](CNS(=O)(=O)c2ccc(Cl)cc2)C2CC1(c1ccc(-c3ccccc3)cc1)CO2` (some centres not stated) registered a CF of 0.1.
Compound `Cc1ccc(S(=O)(=O)NC[C@@H]2C3CC(c4ccc(-c5ccccc5)cc4)(CO3)[C@H]2CC=CCCCC(=O)O)cc1` (some centres not stated) came in with a CF of 4.
Still for that read-out and setting: to `O=C(O)CCCCC[C@H]1[C@H](CNS(=O)(=O)c2ccc(Cl)c(Cl)c2)C2CC1(c1ccc(-c3ccccc3)cc1)CO2` (some centres not stated) belongs 6; to `O=C(O)CCCCC[C@H]1[C@H](CNS(=O)(=O)c2ccc(Cl)cc2)C2CC1(c1ccc(-c3ccccc3)cc1)CO2` (some centres not stated), 0.3.

For a further experiment the target is unchanged. In words: Competition factor for Thromboxane A2 (TXA2) / Prostaglandin H2 (PGH2)-receptor was determined by CF=(ID50-test)/(ID50-standard); agonist. Type of experiment: functional.
Compound `CCCCC[C@H](O)/C=C/[C@H]1C2CC(CO2)[C@@H]1CC=CCCCC(=O)O` (some centres not stated) came in with a CF of 36.
`O=C(O)CCC/C=C/C[C@@H]1[C@@H](COCc2ccccc2)C2CC1(CCc1ccccc1)CO2` (some centres not stated) displayed a CF of 750.
Consider `CCCCC[C@H](O)/C=C/[C@H]1C2CC(C)(CO2)[C@@H]1C/C=C/CCCC(=O)O` (some centres not stated), for which the CF turned out to be 320.

For the next experiment the target is unchanged. The experiment in a line: Competition factor for Thromboxane A2 (TXA2) / Prostaglandin H2 (PGH2)-receptor was determined by CF=(ID50-test)/(ID50-standard); antagonist. Type of experiment: functional.
Compound `O=C(O)CCC/C=C/C[C@@H]1[C@@H](COCc2ccccc2)C2CC1(c1ccccc1)CO2` (some centres not stated) gave a CF of 300.

The values are drawn from ChEMBL document CHEMBL1126454, “Syntheses of new TXA2/PGH2-receptor antagonists and their biological properties” (Bioorg Med Chem Lett, 1992).
